Entries after “also recorded” stand apart in the source; their conditions may differ.
Columns and labels:
non-human primate SSCs = assay: formation of ESC-like colonies in culture of non-human primate SSCs; format: cell-based; conditions: BIO 1 μM; non-human primate cultures
human SSCs = assay: formation of ESC-like colonies in culture of human SSCs; format: cell-based; conditions: BIO 1 μM; human cultures
Experimental: To optimize the culture condition, DMEM/F12 (1:1; Invitrogen) was applied instead of DMEM as basic medium and several growth factors for long-term culture were added: GDNF (4-50 ng/ml), bFGF (1-10 ng/ml), LIF (10^3 Units/ml), BIO (Calbiochem) and 1×B27 (Invitrogen). Collagenase IV (1 mg/ml in PBS) was used instead of trypsin/EDTA for passaging the cells. […] Tightly packed ESC-like colonies derived from human SSCs after 7 passages (about 1 month; FIG. 3d, e) when cells are cultured in DMEM/F12 medium containing 15% FCS, 2 mM glutamine, 1×NEAA, 50 μM β-ME, 10 ng/ml GDNF, 2 ng/ml bFGF, 10^3 Units/ml LIF and 1×B27.

[1] = test system: voltage-gated Na+ and L-type Ca2+ channels; assay: patch-clamp spontaneous action potentials, channel blockade; format: cell-based, mouse; conditions: cadmium 0.5 mmol/L; maGSC-derived cardiomyocytes
Experimental: To determine the functional expression of […] receptors in cardiomyocytes, the effects of β-adrenergic agonist isoproterenol (Iso; 1 μmol/L) on APs were studied. […] This is again in line with data from the ESC-derived cardiomyocytes. […] A further hint for the involvement of fast depolarising Na^+ channels are AP upstroke velocities in the magnitude of 30-50 Vs^−1 for ventricle-, purkinje and atrial-like APs (Table 3).
The membrane potential (Em) of cardiomyocytes was measured at room temperature with ruptured-patch whole cell current clamp (Maier, L. S., et al., Circ Res 2003, 92, 904-11). Fire-polished glass microelectrodes of >10 MΩ resistance when filled with pipette solution were used. Pipette solution contained (in mM) 120 potassium aspartate, 8 KCl, 7 NaCl, 1 MgCl2, 10 HEPES, 5 Mg-ATP, 0.3 Li-GTP (pH 7.2 with KOH). A normal Tyrode's solution with 2 mM CaCl2 served as bath solution. Access resistance was typically ˜20 MΩ after patch rupture. Liquid junction potentials were corrected before recording started. Spontaneous action potentials (APs) were recorded 1 min after patch rupture and followed for about 2 min. Signals were acquired at 1 kHz, filtered with 2.9 and 10 kHz Bessel filters, and recorded with an EPC10 amplifier (HEKA Elektronik, Lambrecht/Pfalz, Germany). […]

gap junctions = assay: fluorescence recovery after photobleaching (FRAP) of calcein AM in cardiac clusters; format: cell-based, mouse; conditions: carbenoxolone 50 μmol/L
Experimental: Functional coupling between cells is confirmed by fluorescence recovery after photobleaching (FRAP) analysis. Briefly, cardiac clusters were loaded with the membrane-permeant fluorescent dye calcein AM (5 μmol/L; Invitrogen) in Ca^2+-free Tyrode solution for 20 min at 37° C. After washing away the excess extracellular fluorescent dye to prevent further loading, the cultures were bathed in Ca^2+-free Tyrode solution and placed on the stage of a Zeiss LSM 5 PASCAL laser-scanning confocal microscope. Using Zeiss software, a rectangular region encompassing 30-50% of a single cell within a cell cluster was selected and its fluorescence was bleached by a high-intensity laser pulse (488 nm, 3-5 s duration). This caused immediate loss of calcein fluorescence emission recorded through a 505 nm long-pass emission filter. Calcein redistribution from adjacent unbleached cells through connexin pores into the bleached region of interest (ROI) was recorded in subsequent confocal images acquired at 30 s intervals for up to 10 min using a low-intensity laser pulse. Fluorescence recovery within ROI was plotted as a function of time and fit to a single exponential function: IROI (t)=A [1−exp (−kt)], where IROI (t) is the ROI fluorescence intensity at time t, A is the amplitude of fluorescence recovery, and k is the rate of recovery. The latter is considered a measure of gap junction permeability. […]

L-type calcium channels = biological target: T1, L-type calcium channels (Mus musculus, UniProt Q01815); assay: chronotropic effects of cardioactive drugs on beating cardiac clusters; format: cell-based; conditions: beating cardiac clusters at day 5+15; for beating frequency / contraction: 10^−5 mol/L; for chronotropic effect on the beating frequency of maGSC-derived cardiomyocytes: dose dependence
T1 construct: functional L-type calcium channels exist in the maGSC-derived beating cardiomyocytes; endogenous in cells; host or cells: beating cardiac clusters (day 5+15) differentiated from mouse maGSCs
T1 sequence (Q01815 whole entry): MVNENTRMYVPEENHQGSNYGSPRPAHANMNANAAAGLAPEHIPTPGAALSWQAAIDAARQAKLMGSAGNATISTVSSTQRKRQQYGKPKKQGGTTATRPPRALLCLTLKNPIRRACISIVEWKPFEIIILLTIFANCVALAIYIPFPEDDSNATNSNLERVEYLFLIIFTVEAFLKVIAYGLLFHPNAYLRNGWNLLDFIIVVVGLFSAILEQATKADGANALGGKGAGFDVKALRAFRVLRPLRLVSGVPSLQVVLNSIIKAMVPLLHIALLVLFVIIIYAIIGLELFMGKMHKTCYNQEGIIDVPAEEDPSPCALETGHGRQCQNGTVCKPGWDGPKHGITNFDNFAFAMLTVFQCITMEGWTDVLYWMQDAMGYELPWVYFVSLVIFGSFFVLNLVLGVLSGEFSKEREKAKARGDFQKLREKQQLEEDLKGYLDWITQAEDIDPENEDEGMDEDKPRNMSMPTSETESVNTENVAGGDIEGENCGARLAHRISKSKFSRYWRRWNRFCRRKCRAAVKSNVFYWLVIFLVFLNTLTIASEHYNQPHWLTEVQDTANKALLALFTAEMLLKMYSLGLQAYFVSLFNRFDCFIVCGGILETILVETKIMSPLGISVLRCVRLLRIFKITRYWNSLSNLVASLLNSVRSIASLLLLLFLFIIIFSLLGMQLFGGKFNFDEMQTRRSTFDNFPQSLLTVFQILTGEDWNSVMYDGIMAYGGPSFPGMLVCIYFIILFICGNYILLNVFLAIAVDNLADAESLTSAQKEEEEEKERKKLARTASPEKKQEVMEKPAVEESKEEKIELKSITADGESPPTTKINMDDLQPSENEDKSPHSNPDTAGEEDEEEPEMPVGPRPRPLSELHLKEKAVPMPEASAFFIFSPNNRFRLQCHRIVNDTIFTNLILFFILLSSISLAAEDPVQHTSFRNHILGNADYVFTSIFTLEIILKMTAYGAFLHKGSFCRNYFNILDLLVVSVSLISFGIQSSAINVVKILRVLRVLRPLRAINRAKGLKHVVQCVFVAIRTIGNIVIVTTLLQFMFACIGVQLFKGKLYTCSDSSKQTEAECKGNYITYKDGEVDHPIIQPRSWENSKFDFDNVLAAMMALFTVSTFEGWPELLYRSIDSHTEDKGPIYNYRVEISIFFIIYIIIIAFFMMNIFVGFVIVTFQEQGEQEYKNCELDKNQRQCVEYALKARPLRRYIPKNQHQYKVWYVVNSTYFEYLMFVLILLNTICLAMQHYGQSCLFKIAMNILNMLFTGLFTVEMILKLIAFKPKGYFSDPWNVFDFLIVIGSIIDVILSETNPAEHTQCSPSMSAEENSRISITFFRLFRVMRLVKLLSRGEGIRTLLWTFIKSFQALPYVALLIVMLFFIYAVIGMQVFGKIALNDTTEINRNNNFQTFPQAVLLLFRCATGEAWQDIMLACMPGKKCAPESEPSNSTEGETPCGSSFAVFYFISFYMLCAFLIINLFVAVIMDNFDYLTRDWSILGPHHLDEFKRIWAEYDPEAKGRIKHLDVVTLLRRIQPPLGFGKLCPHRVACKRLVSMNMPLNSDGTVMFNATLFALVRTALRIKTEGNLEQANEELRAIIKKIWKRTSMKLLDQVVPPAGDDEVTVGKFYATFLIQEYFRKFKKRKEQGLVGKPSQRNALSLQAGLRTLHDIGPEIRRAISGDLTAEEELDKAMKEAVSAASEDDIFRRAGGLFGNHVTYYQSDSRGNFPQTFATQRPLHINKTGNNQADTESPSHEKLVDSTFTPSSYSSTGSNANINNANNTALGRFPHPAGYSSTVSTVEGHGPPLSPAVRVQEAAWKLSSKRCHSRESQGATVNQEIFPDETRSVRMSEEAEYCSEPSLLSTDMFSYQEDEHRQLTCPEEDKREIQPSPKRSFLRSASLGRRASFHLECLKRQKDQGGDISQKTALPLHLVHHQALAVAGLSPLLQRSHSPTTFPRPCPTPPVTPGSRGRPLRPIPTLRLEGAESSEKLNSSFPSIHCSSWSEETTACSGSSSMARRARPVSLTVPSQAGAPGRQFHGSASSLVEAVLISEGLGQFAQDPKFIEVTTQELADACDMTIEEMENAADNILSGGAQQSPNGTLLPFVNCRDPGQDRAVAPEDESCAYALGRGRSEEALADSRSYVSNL
T1 sequence (Q8CC27 whole entry partner): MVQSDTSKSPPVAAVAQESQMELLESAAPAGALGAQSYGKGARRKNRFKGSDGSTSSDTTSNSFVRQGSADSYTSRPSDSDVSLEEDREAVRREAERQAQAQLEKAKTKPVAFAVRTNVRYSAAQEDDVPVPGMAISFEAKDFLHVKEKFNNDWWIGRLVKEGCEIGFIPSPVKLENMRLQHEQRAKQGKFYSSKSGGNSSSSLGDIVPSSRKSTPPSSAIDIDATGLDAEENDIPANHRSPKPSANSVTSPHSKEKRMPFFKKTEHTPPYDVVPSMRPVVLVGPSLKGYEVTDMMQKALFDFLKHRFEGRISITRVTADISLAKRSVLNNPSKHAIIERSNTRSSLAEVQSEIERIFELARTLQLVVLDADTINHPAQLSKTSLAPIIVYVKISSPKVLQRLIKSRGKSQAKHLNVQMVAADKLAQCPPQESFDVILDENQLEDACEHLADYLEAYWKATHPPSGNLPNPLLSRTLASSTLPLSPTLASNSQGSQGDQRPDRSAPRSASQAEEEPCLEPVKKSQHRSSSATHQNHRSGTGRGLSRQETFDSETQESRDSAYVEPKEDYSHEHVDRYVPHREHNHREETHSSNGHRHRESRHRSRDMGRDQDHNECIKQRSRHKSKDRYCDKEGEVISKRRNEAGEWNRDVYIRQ
T1 sequence (O08532 25-956 partner limits assumed): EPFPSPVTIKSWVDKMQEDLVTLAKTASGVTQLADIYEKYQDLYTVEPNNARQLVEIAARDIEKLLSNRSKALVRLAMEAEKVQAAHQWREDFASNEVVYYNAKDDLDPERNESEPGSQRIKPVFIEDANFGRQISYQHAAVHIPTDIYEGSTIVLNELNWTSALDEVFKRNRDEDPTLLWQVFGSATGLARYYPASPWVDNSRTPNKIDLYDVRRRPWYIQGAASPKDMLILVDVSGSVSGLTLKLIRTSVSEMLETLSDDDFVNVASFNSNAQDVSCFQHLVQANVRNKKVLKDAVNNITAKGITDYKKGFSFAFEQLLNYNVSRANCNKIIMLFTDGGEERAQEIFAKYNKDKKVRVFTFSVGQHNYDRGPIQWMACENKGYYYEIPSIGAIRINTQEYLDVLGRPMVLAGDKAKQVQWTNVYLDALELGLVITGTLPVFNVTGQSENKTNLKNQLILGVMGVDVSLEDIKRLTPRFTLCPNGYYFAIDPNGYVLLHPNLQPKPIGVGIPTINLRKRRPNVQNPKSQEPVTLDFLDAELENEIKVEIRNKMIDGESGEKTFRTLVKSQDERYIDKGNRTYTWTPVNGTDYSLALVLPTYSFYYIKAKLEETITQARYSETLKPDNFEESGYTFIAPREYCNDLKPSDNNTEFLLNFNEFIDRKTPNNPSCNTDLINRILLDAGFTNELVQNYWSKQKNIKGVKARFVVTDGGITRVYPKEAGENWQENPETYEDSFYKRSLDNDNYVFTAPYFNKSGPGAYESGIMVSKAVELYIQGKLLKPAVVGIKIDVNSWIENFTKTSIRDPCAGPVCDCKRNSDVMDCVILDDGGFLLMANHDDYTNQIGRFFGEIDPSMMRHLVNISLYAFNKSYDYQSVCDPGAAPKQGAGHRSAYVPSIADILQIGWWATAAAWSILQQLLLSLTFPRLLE
T1 sequence (O08532 957-1103 partner limits assumed): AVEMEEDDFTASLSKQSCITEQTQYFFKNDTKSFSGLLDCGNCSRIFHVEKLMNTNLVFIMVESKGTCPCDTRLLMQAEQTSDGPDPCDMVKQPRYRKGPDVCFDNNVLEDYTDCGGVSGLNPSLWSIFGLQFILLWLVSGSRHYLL
Description: In cardiac muscle, where Ca^2+ influx across the sarcolemma is essential for contraction, the dihydropyridine (DHP)-sensitive L-type calcium channel (DHP receptor) represents the major entry pathway of extracellular Ca^2+. […] The function of L-type calcium channels is examined in beating cardiac clusters at day 5+15 by evaluating chronotropic effects of cardioactive drugs.

Compound	beating frequency / contraction (L-type calcium channels)	chronotropic effect on the beating frequency of maGSC-derived cardiomyocytes (L-type calcium channels)	further results
O=C1Nc2cc(Br)ccc2/C1=C1/Nc2ccccc2/C1=N\O [BIO, (2′Z, 3′E)-6-Bromoindirubin-3′-oxime]	–	–	formation of ESC-like colonies (non-human primate SSCs): optimized the formation of ESC-like colonies; formation of ESC-like colonies (human SSCs): optimized the formation of ESC-like colonies
[Cd] [cadmium]	–	–	spontaneous APs [1]: completely abolished
CC1(C)[C@@H](OC(=O)CCC(=O)O)CC[C@]2(C)[C@H]3C(=O)C=C4[C@@H]5C[C@@](C)(C(=O)O)CC[C@]5(C)CC[C@@]4(C)[C@]3(C)CC[C@@H]12 [carbenoxolone, 3β-hydroxy-11-oxoolean-12-en-30-oic acid 3-hemisuccinate]	–	–	fluorescence recovery after photobleaching (gap junctions): disrupted; also recorded: almost completely abolished
COc1ccc([C@@H]2Sc3ccccc3N(CCN(C)C)C(=O)[C@@H]2OC(C)=O)cc1 [diltiazem]	almost completely blockes the contraction	dose-dependent negative chronotropic effects	–
(S)-BayK 8644	doubles the beating frequency	dose-dependent positive chronotropic effects	–
